Key:
BMDCs [1] = assay: Cell uptake of Cy5-labeled nanoparticles by flow cytometry; format: cell-based, mouse; settings: co-incubation with Cy5-labeled AnCHNPs 5 μg/mL
Experimental: BMDCs were seeded into 6-well plates at a density of 1×10^6 cells per well and incubated overnight. The cells were then treated with Cy-5 labeled PCHNPs and AnCHNPs (5 μg/mL) for 2 hrs. Furthermore, different endocytosis inhibitors Sodium azide (NaN3, 99.5%, Sigma-Aldrich, Lot #S2002), Dynasore (C18H14N2O4, 98%, Sigma-Aldrich, Lot #324410), Nystatin (Sigma-Aldrich, Lot #N4014), Chlorpromazine (C17H19ClN2S·HCl, 98%, Sigma-Aldrich, Lot #C8138) were used. The Fluorescence of Cy-5 taken up by DCs were measured by flow cytometry.

EL4 cells [2] = assay: Cellular uptake of Cy5-labelled nanoparticles in EL4 cells; format: cell-based; settings: EL4, co-incubation
BMDCs [3] = assay: [Ca2+]int measurement (Fluo-3 AM); format: cell-based, mouse; settings: 5 or 10 μg/mL Ca
Experimental: Fluo-3 AM kit (Cayman, 14960) was used to measure [Ca2+]int in BMDCs after treatment with AnCHNPs. Briefly, BMDCs were seeded into a 96-well plate at a density of 1×10^4 cells per well and incubated overnight. At different time points (0, 1, 2, 4, 8, and 24 hrs), medium was taken from the well, replenished with prewarmed (37° C.) probe-containing medium (to a final concentration of 5 μM). Cells were incubated for 30 mins under the same growth conditions. Then the loading solution was replaced with fresh medium, removing dye molecules nonspecifically attached to cell surface. Cells were incubated for another 30 mins to allow for complete de-esterification of the acetoxymethyl esters. Fluorescence (ex/em: 485/520 nm) was recorded on a microplate reader (Synergy Mx, BioTeK).

BMDCs [4] = assay: BMDC maturation, flow cytometry for MHC-II and CD205; format: cell-based, mouse; settings: 5 or 10 μg/mL, 24 h, no cancer cells
Experimental: Maturation BMDCs were seeded onto a 6-well plate at a density of 1×10^6 cells per well one day before the experiment. BMDCs were treated with PBS, CaCl2 solution (5 or 10 μg/mL), and AnCHNPs (5 or 10 μg/mL). After incubation for 24 hrs, supernatant was removed, and BMDCs were harvested by cell lifter. BMDCs were subsequently stained with MHCII-FITC (#107616) and CD205-APC (#138206) and analyzed flow cytometry. Also, BMDCs were treated with SiO2-PEG shell (10 μg/mL), harvested after 24 hrs incubation, stained with MHCII-FITC (#107616), CD80-PerCP-Cy5.5 (#560526), CD86-BV605 (#563055), CD40-PE (#12-0401-83), and OVA-APC (#17-5743-82), and analyzed by flow cytometry.

CFSE-labeled BMDCs = assay: Transwell DC migration assay; format: cell-based, mouse; settings: 5 or 10 μg/mL, 24 h, B16F10-OVA in lower chamber
[5] = system: BMDCs/B16F10-OVA (pre-irradiated, 100 Gy) co-cultures; assay: DC activation and antigen-presentation in co-culture (flow cytometry, ELISA); format: cell-based, mouse; settings: comparators
EL4 cells [6] = assay: Intracellular calcium levels (Fluo-3AM); format: cell-based; settings: same calcium concentration
Experimental: Changes in intracellular calcium levels were measured using Fluo-3AM as an indicator.

[7] = system: B16F10-OVA-tumor-bearing C57BL/6 mice
EL4 cells [8] = settings: dose as equivalent calcium concentration
[9] = system: C57BL/6 mice bearing B16F10-OVA tumors; assay: Therapy study, combination with chemotherapy (carboplatin); format: in vivo; settings: carboplatin alone, 40 mg/kg i.p.
Experimental: Combination with chemotherapy: This was investigated in C57BL/6 mice bearing B16F10-OVA tumors. When tumor sizes reached ~50 mm3, the animals were randomized to receive the following treatments (n=5 for each group): (1) PBS (i.t., 50 μL*2, Day 0 and Day 2); (2) Carboplatin (i.p., 40 mg/kg, 100 μL, Day 0); (3) Carboplatin (i.p., 40 mg/kg, 100 μL, Day 0)+AnCHNPs (i.t., 200 μg/kg*2, 50 μL, Day 0 and Day 2). The tumor size and body weight were inspected daily. The tumor was measured in two dimensions with a caliper and tumor volume was estimated as (length)×(width) 2/2.

Q: For `C[C@@H]1[C@H](O)[C@@H](C)/C=C/C=C/CC/C=C/C=C/C=C/C=C/C(O[C@H]2O[C@H](C)[C@@H](O)[C@H](N)[C@@H]2O)CC2O[C@](O)(CC(O)C(O)CCC(O)CC(O)CC(O)CC(=O)O[C@H]1C)CC(O)C2C(=O)O` (some centres unmarked) [nystatin, Nystatin], which “effect of endocytosis inhibitor on AnCHNPs uptake by DCs” value (BMDCs [1]) is on record?
A: The value was “had no effect on the particle uptake”.

Q: And the “effect of endocytosis inhibitor on uptake of PMA@CCNP-Ab” value (EL4 cells [2])?
A: The value was “did not inhibit cellular uptake”.

Q: `[N-]=[N+]=[N-].[Na+]` [azide, Sodium azide] was tested. Which “effect of endocytosis inhibitor on AnCHNPs uptake by DCs” value (BMDCs [1]) did it give?
A: Its value is “reduced”.

Q: Which “[Ca2+]int change” value (BMDCs [3]) does the source give for `[Ca+2].[Cl-].[Cl-]` [CaCl2, calcium chloride] here?
A: Its value is “little [Ca^2+]int increase”.

Q: What about the “CD205 expression in DCs” value (BMDCs [4]) of the same compound?
A: Its value is “no impact”.

Q: What about the “population and expression levels (MFI) of MHC-II+ DCs” value (BMDCs [4]; relative to untreated DCs) of the same compound?
A: Its value is “no impact”.

Q: What about the “numbers of DCs migrating to the bottom chamber” value (CFSE-labeled BMDCs) of the same compound?
A: The value was “minimally affected DC migration”.

Q: What about the “impact on DC activation” value [5] of the same compound?
A: Its value is “no positive impact on DC activation”.

Q: And the intracellular calcium levels (EL4 cells [6])?
A: The intracellular calcium levels was “did not increase cellular calcium levels”.

Q: And the “IFN-γ+ CTL frequency, splenocytes co-incubated with B16F10-OVA cells ex vivo” value ([7]; 6 h co-incubation)?
A: The value was “marginal T cell activation”.

Q: What about the “change of serum cytokine levels (IL-1β, IL-6, TNF-α, IFN-γ, IL-12 elevated, IL-10 decreased)” value ([7]; Day 3 and Day 7, relative to PBS control, comparator) of the same compound?
A: The value was “not”.

Q: And the “frequency of Tregs (CD45+CD3+CD4+Foxp3+) in tumors” value ([7]; RT 10 Gy + 200 μg/kg i.t.)?
A: The value was “minimum impact”.

Q: And the “tumor-infiltration of cytotoxic T cells (CTLs, CD45+CD3+CD8+)” value ([7]; RT 10 Gy + 200 μg/kg i.t., tumor, Day 7)?
A: Its value is “minimum impact”.

Q: And the “Ca2+ concentration at which an effect on cell viability / significant toxicity appears” value (EL4 cells [8])?
A: The value was at least 100 µg/mL.

Q: Which average survival [9] does the source give for `N.N.O=C([O-])C1(C(=O)[O-])CCC1.[Pt+2]` [carboplatin] here?
A: The average survival was 15 days.

Q: What about the “time by which all animals died” value [9] of the same compound?
A: The value was at most 3 weeks.

Q: What about the tumor growth [9] of the same compound?
A: Its tumor growth is “only marginally retarded tumor growth”.

Q: `O=C(N/N=C/c1ccc(O)c(O)c1)c1cc2ccccc2cc1O` [dynasore, Dynasore] was tested. Which “effect of endocytosis inhibitor on AnCHNPs uptake by DCs” value (BMDCs [1]) did it give?
A: Its value is “inhibited”.

Q: And the “effect of endocytosis inhibitor on uptake of PMA@CCNP-Ab” value (EL4 cells [2])?
A: Its value is “decreased”.

Q: How did the “effect of endocytosis inhibitor on AnCHNPs uptake by DCs” value (BMDCs [1]) turn out when `CN(C)CCCN1c2ccccc2Sc2ccc(Cl)cc21` [chlorpromazine, Chlorpromazine] was run?
A: The value was “inhibited”.

Reference: US20260199254A1, “COMPOSITIONS AND METHODS OF USE THEREOF FOR INCREASING IMMUNE RESPONSES” (priority 2022, published 2026)
